# Results reported in ChEMBL document CHEMBL5126522, “In vitro and in vivo evaluation of 211At-labeled fibroblast activation protein inhibitor for glioma treatment” (Bioorg Med Chem, 2022).
# Experiments:
# [1] = Stability of the compound in saline measured after 24 hrs by iTLC analysis; format: physicochemical; conditions: read-out: Stability
# [2] = Antitumor activity against human U-87 MG cells xenografted in BALB/c nude mouse assessed as proportion of TUNEL-positive cells in tumor at 0.55 MBq, it measured after 12 days by immunohistochemical analysis (reference value: 3.31 +/-1.13%); format: functional, U-87MG ATCC; conditions: time 12 day
# [3] = Inhibition of colony formation in human U-87 MG cells assessed as survival fraction at 9.2 kBq incubated in radioactive medium for 12 hrs followed by incubation in non-radioactive medium for 14 days by crystal violet staining based analysis; format: functional, U-87MG ATCC; conditions: time 852 hrs
# [4] = Anti-tumor activity against human U-87 MG cells xenografted in BALB/c nude mouse assessed as median survival time at 0.55 MBq, it (reference value: 16.5 days); format: functional, U-87MG ATCC
# [5] = Drug uptake in thyroid of BALB/c nude mouse xenografted with human U-87 MG cells at 0.3 MBq, it by gamma-counting analysis; format: ADME, tissue-based, Thyroid gland; conditions: other
# [6] = Ratio of drug level in tumor to kidney in BALB/c nude mouse xenografted with human U-87 MG cells at 0.3 MBq, it measured after 2 hrs by gamma-counting analysis; format: ADME, tissue-based; conditions: other
# [7] = Drug uptake in FAP-positive human U-87 MG cells assessed as binding rate measured after 60 mins; format: ADME, cell-based; conditions: u-87mg atcc, 1 h
# [8] = Drug uptake in FAP-positive human U-87 MG cells assessed as binding rate measured for 4 hrs; format: ADME, cell-based; conditions: u-87mg atcc
# [9] = Toxicity in BALB/c nude mouse xenografted with human U-87 MG cells assessed as change in body weight at 0.18 to 0.55 MBq, it; conditions: other, dose 0.18-0.55 MBq
# [10] = Toxicity in BALB/c nude mouse xenografted with human U-87 MG cells assessed as liver morphological changes at 0.55 MBq, it measured after 2 to 12 days by Hematoxylin-Eosin staining based analysis; format: tissue-based; conditions: other, time 2-12 day
# [11] = Toxicity in BALB/c nude mouse xenografted with human U-87 MG cells assessed as kidney morphological changes at 0.55 MBq, it measured after 2 to 12 days by Hematoxylin-Eosin staining based analysis; format: tissue-based; conditions: other, time 2-12 day
# [12] = Anti-tumor activity against human U-87 MG cells xenografted in BALB/c nude mouse assessed as median survival time at 0.37 MBq, it (reference value: 16.5 days); format: functional, U-87MG ATCC
# [13] = Antitumor activity against human U-87 MG cells xenografted in BALB/c nude mouse assessed as proportion of TUNEL-positive cells in tumor at 0.55 MBq, it measured after 2 days by immunohistochemical analysis (reference value: 3.54 +/-2.71%); format: functional, U-87MG ATCC; conditions: time 2 day
# [14] = Cytotoxicity against human U-87 MG cells assessed as cell viability at 92 kBq incubated in radioactive medium for 12 hrs followed by incubation in non-radioactive medium for 24 hrs by CCK8 assay; format: functional, U-87MG ATCC; conditions: time 36 hrs
# [15] = Drug uptake in stomach of BALB/c nude mouse xenografted with human U-87 MG cells at 0.3 MBq, iv by gamma-counting analysis; format: ADME, organism-based; conditions: in vivo
# [16] = Induction of cell cycle arrest in human U-87 MG cells assessed as proportion of cells at G0/G1 phase at 23 kBq incubated in radioactive medium for 12 hrs followed by incubation in non-radioactive medium for 24 hrs by PI staining based flow cytometry (reference value: 69.9 +/-3.76%); format: functional, U-87MG ATCC; conditions: time 36 hrs
# [17] = Ratio of drug level in tumor to muscle in BALB/c nude mouse xenografted with human U-87 MG cells at 0.3 MBq, it measured after 2 hrs by gamma-counting analysis; format: ADME, tissue-based; conditions: other
# [18] = Drug uptake in tumor of BALB/c nude mouse xenografted with human U-87 MG cells at 0.3 MBq, it measured after 6 hrs by gamma-counting analysis; format: ADME, Neoplasm; conditions: other
# [19] = Drug uptake in kidney of BALB/c nude mouse xenografted with human U-87 MG cells at 0.3 MBq, iv measured after 0.5 hrs by gamma-counting analysis; format: ADME, organism-based; conditions: in vivo
# [20] = Anti-tumor activity against human U-87 MG cells xenografted in BALB/c nude mouse assessed as reduction in tumor volume at 0.55 MBq, it measured on day 15 by electronic caliper analysis; format: functional, U-87MG ATCC; conditions: time 15 day
# [21] = Drug uptake in tumor of BALB/c nude mouse xenografted with human U-87 MG cells at 0.3 MBq, it measured after 2 hrs by gamma-counting analysis; format: ADME, tissue-based, Neoplasm; conditions: other
# [22] = Anti-tumor activity against human U-87 MG cells xenografted in BALB/c nude mouse assessed as reduction in tumor volume at 0.18 MBq, it measured on day 15 by electronic caliper analysis; format: functional, U-87MG ATCC
# [23] = Inhibition of colony formation in human U-87 MG cells assessed as survival fraction at 18.5 kBq incubated in radioactive medium for 12 hrs followed by incubation in non-radioactive medium for 14 days by crystal violet staining based analysis; format: functional, U-87MG ATCC
# [24] = Drug uptake in tumor of BALB/c nude mouse xenografted with human U-87 MG cells at 0.3 MBq, iv measured after 2 hrs by gamma-counting analysis; format: ADME, organism-based, Neoplasm; conditions: in vivo
# [25] = Drug uptake in FAP-positive human U-87 MG cells assessed as binding rate pretreated with excess standard products measured after 60 mins; format: ADME, cell-based; conditions: u-87mg atcc, 1 h
# [26] = Drug uptake in liver of BALB/c nude mouse xenografted with human U-87 MG cells at 0.3 MBq, it measured after 0.5 hrs by gamma-counting analysis; format: ADME, tissue-based; conditions: other
# [27] = Cytotoxicity against human U-87 MG cells assessed as cell viability at 12 kBq incubated in radioactive medium for 12 hrs followed by incubation in non-radioactive medium for 24 hrs by CCK8 assay; format: functional, U-87MG ATCC; conditions: time 36 hrs
# [28] = Toxicity in BALB/c nude mouse xenografted with human U-87 MG cells assessed as thyroid morphological changes at 0.55 MBq, it measured after 2 to 12 days by Hematoxylin-Eosin staining based analysis; conditions: other, time 2-12 day
# [29] = Anti-tumor activity against human U-87 MG cells xenografted in BALB/c nude mouse assessed as reduction in tumor volume at 0.37 MBq, it measured on day 15 by electronic caliper analysis; format: functional, U-87MG ATCC
# [30] = Drug uptake in FAP-positive human U-87 MG cells assessed as binding rate measured after 10 mins; format: ADME, cell-based; conditions: u-87mg atcc
# [31] = Drug uptake in liver of BALB/c nude mouse xenografted with human U-87 MG cells at 0.3 MBq, iv measured after 0.5 hrs by gamma-counting analysis; format: ADME, organism-based; conditions: in vivo
# [32] = Toxicity in BALB/c nude mouse xenografted with human U-87 MG cells assessed as stomach morphological changes at 0.55 MBq, it measured after 2 to 12 days by Hematoxylin-Eosin staining based analysis; format: tissue-based; conditions: other, time 2-12 day
# [33] = Hepatotoxicity BALB/c nude mouse xenografted with human U-87 MG cells assessed as change in serum ALT level at 0.55 MBq, it measured after 2 to 12 days; format: toxicity; conditions: other, time 2-12 day
# [34] = Ratio of drug level in tumor to blood in BALB/c nude mouse xenografted with human U-87 MG cells at 0.3 MBq, it measured after 2 hrs by gamma-counting analysis; format: ADME, tissue-based; conditions: other
# [35] = Inhibition of colony formation in human U-87 MG cells assessed as survival fraction at 4.6 kBq incubated in radioactive medium for 12 hrs followed by incubation in non-radioactive medium for 14 days by crystal violet staining based analysis; format: functional, U-87MG ATCC; conditions: time 852 hrs
# [36] = Drug uptake in stomach of BALB/c nude mouse xenografted with human U-87 MG cells at 0.3 MBq, it by gamma-counting analysis; format: ADME; conditions: other
# [37] = Ratio of drug level in tumor to liver in BALB/c nude mouse xenografted with human U-87 MG cells at 0.3 MBq, it measured after 2 hrs by gamma-counting analysis; format: ADME, tissue-based; conditions: other
# [38] = Antitumor activity against human U-87 MG cells xenografted in BALB/c nude mouse assessed as Ki67 expression in tumor at 0.55 MBq, it measured after 2 days by immunohistochemical analysis (reference value: 49.8 +/-7.67%); format: functional, U-87MG ATCC; conditions: time 2 day
# [39] = Stability of the compound in serum (unknown origin) measured after 24 hrs by iTLC analysis; format: ADME, cell-free; conditions: read-out: Stability
# [40] = Drug uptake in FAP-negative human MCF7 cells assessed as binding rate measured after 10 to 240 mins; format: ADME, cell-based; conditions: time 10-240 min
# [41] = Induction of cell cycle arrest in human U-87 MG cells assessed as proportion of cells at G2/M phase at 23 kBq incubated in radioactive medium for 12 hrs followed by incubation in non-radioactive medium for 24 hrs by PI staining based flow cytometry (reference value: 15.7 +/-3.61%); format: functional, U-87MG ATCC; conditions: time 36 hrs
# [42] = Anti-tumor activity against human U-87 MG cells xenografted in BALB/c nude mouse assessed as median survival time at 0.18 MBq, it (reference value: 16.5 days); format: functional, U-87MG ATCC
# [43] = Drug uptake in tumor of BALB/c nude mouse xenografted with human U-87 MG cells at 0.3 MBq, iv measured after 0.5 hrs by gamma-counting analysis; format: ADME, organism-based, Neoplasm; conditions: in vivo
# [44] = Drug uptake in tumor of BALB/c nude mouse xenografted with human U-87 MG cells at 0.3 MBq, it measured after 0.5 hrs by gamma-counting analysis; format: ADME, tissue-based, Neoplasm; conditions: other
# [45] = Drug uptake in thyroid of BALB/c nude mouse xenografted with human U-87 MG cells at 0.3 MBq, iv by gamma-counting analysis; format: ADME, organism-based, Thyroid gland; conditions: in vivo
# [46] = Drug uptake in tumor of BALB/c nude mouse xenografted with human U-87 MG cells at 0.3 MBq, iv measured after 6 hrs by gamma-counting analysis; format: ADME, organism-based, Neoplasm; conditions: in vivo
# [47] = Renal toxicity BALB/c nude mouse xenografted with human U-87 MG cells assessed as change in BUN level at 0.55 MBq, it measured after 2 to 12 days; conditions: other, time 2-12 day
# [48] = Drug uptake in kidney of BALB/c nude mouse xenografted with human U-87 MG cells at 0.3 MBq, it measured after 0.5 hrs by gamma-counting analysis; format: ADME, tissue-based; conditions: other
smiles,measurement,setting,value
N#C[C@@H]1CC(F)(F)CN1C(=O)CNC(=O)c1ccnc2ccc(OCCCN3CCN(C(=O)c4ccc([211At])cc4)CC3)cc12,remaining at 24 h,[1],94.7%
same,Activity,[2],28.5%
same,Activity,[3],8.1%
same,Survival,[4],33 days
same,Drug uptake,[5],Active
same,Ratio,[6],6.39
same,Drug uptake,[7],24.9%
same,Drug uptake,[8],Active
same,Activity,[9],Non-Toxic
same,Activity,[10],Non-Toxic
same,Activity,[11],Non-Toxic
same,Survival,[12],30 days
same,Activity,[13],28.7%
same,Activity,[14],42.1%
same,Drug uptake,[15],Active
same,Activity,[16],21.9%
same,Ratio,[17],45.75
same,Drug uptake,[18],11.47 % ID/g
same,Drug uptake,[19],Active
same,inhibition (INH),[20],76%
same,Drug uptake,[21],19.24 % ID/g
same,inhibition (INH),[22],55%
same,Activity,[23],1.97%
same,Drug uptake,[24],3.12 % ID/g
same,Drug uptake,[25],9.3%
same,Drug uptake,[26],Active
same,Activity,[27],61.9%
same,Activity,[28],Non-Toxic
same,inhibition (INH),[29],70%
same,Drug uptake,[30],14.4%
same,Drug uptake,[31],Active
same,Activity,[32],Non-Toxic
same,Activity,[33],Non-Toxic
same,Ratio,[34],14.17
same,Activity,[35],28.1%
same,Drug uptake,[36],Active
same,Ratio,[37],11.13
same,Activity,[38],17.9%
same,remaining at 24 h,[39],85.6%
same,Drug uptake,[40],4.7%
same,Activity,[41],62.7%
same,Survival,[42],24 days
same,Drug uptake,[43],4.04 % ID/g
same,Drug uptake,[44],132.5 % ID/g
same,Drug uptake,[45],Active
same,Drug uptake,[46],1.86 % ID/g
same,Activity,[47],Non-Toxic
same,Drug uptake,[48],Active
